In brackets after ≈: the same amount, converted by molar mass.
Key:
[1] = Solubility of Compound 1 incubated for 24 h at 25° C. (Example 6); assay type: physicochemical
Protocol: The solubilization effect of sodium sulfobutylether-β-cyclodextrin (SBECD) and hydroxypropyl-β-cyclodextrin (HP-β-CD) on Compound 1 was investigated by taking the solubility in 50 mM pH 4.5 acetate buffer medium and water as a reference.
In the art, surfactants may also be used for solubilization. To further improve the solubility of Compound 1, a surfactant was added on the basis of SBECD to investigate the solubility.

[2] = test system: Acinetobacter baumannii AR0274; assay: Neutropenic mouse thigh infection, imipenem + Compound 1 dose ratios (Example 3); assay type: in vivo; conditions: Compound 1 total 96 mg/kg IV; 9 h after inoculation
Protocol: (§1) The overnight cultures are washed twice with phosphate buffer solution (PBS) and adjusted to the optimal concentration in PBS.
(§2) For intravenous (IV) administration, the solution of Compound 1 is prepared using a Captisol vehicle, which is 25 mM acetate buffer (prepared with sodium acetate trihydrate) containing 10% w/v Captisol. The pH is adjusted to 5.0 with 2N acetic acid solution. A desired volume of buffer is added to the weighed sample, the desired concentration of Compound 1 is prepared in the buffer, which is then ultrasonically heated in a water bath until a clear solution was obtained. The administrated volume of Compound 1 is 5 mL/kg.
(§3) For subcutaneous (SC) administration, an imipenem solution or imipenem-cilastatin solution is prepared in sterile PBS by using imipenem monohydrate or imipenem monohydrate and cilastatin sodium. The desired concentration of imipenem is prepared by adding PBS to the solid powder, then sonicating the mixture in a water bath until a clear solution is obtained, and the administrated volume is 10 mL/kg.
(§4) The mice were divided into 16 groups, with 5 mice in each group. […]
(§5) For the […] Group 1 (control group) above, animals were euthanized with an overdose of sodium pentobarbital 1 hour after inoculation. As described above, bilateral thighs were dissected and quantitatively cultured for use as final samples.

[3] = test system: Pseudomonas aeruginosa ACC00680; assay: Neutropenic mouse thigh infection, imipenem + cilastatin + Compound 1 dose ratios (Example 2); assay type: in vivo; conditions: Compound 1 total 96 mg/kg IV; 9 h after inoculation
Protocol: as §1, §2, §3, §4, §5

[4] = test system: Pseudomonas aeruginosa ACC00680; assay: Neutropenic mouse thigh infection, imipenem + Compound 1 dose ratios (Example 1); assay type: in vivo; conditions: 9 h after inoculation
Protocol: as §1, §2, §3
The mice were divided into 15 groups, with 5 mice in each group. The test was carried out following the above steps, the concentration of the bacterial solution of Pseudomonas aeruginosa ACC00680 was 1.83×10^5 colony forming unit (CFU) per gram of thigh tissues, and the administration was conducted according to the scheme in the table below.
For Groups 2 to 15 above, animals were euthanized 9 hours after inoculation using an overdose of sodium pentobarbital, followed by confirmation of death by cervical dislocation.
as §5

[5] = test system: Klebsiella pneumoniae AR0113; assay: Neutropenic mouse thigh infection, imipenem + Compound 1 dose ratios (Example 4); assay type: in vivo; conditions: Compound 1 total 96 mg/kg; 9 h after inoculation
Protocol: as §1, §2, §3, §4, §5

## N=C1NC[C@@H](c2nnc([C@@H]3CC4(CC4)[C@@H]4CN3C(=O)N4OS(=O)(=O)O)o2)N1 [Compound 1]
[1]; SBECD 10% plus surfactant
  effect of surfactant added on the basis of SBECD on solubility: failed to significantly improve the solubility
[1]; water, background statement, conditions not stated
  solubility: 600 µg/mL (≈ 1500 µM)
[2]
  Group geometric mean (CFU/g): 1.89 × 10^7 CFU/g
[3]
  Group geometric mean (CFU/g): 3.21 × 10^7 CFU/g
[4]; Compound 1 total 50 mg/kg IV
  Group geometric mean (CFU/g): 4.63 × 10^5 CFU/g
[4]; Compound 1 total 75 mg/kg IV
  Group geometric mean (CFU/g): 1.93 × 10^6 CFU/g
[4]; Compound 1 total 100 mg/kg IV
  Group geometric mean (CFU/g): 4.52 × 10^6 CFU/g
[5]
  Group geometric mean (CFU/g): 2.06 × 10^7 CFU/g

Source: patent US20260224542A1, “PHARMACEUTICAL COMPOSITION CONTAINING ß-LACTAMASE INHIBITOR AND USE THEREOF” (priority 2023, published 2026)
